Measurements published in ChEMBL document CHEMBL1148814, “Novel class of quinone-bearing polyamines as multi-target-directed ligands to combat Alzheimer's disease” (J Med Chem, 2007).
pIC50: −log10 of the molar value. Activity calls are given as the source filed them. No cut-off for these calls is given here.

Experiments:
Acetylcholinesterase = Acetylcholinesterase (Homo sapiens, UniProt P22303)
Description: Inhibition of human recombinant acetylcholinesterase

Cholinesterase = Cholinesterase (Homo sapiens, UniProt P06276)
Description: Inhibition of human recombinant butyrylcholinesterase

SH-SY5Y [1] = experiment: Antioxidant activity in human SHSY5Y cells overexpressing NQO1 assessed as increase in tert-butyl hydroperoxide evoked-intracellular ROS formation at 3 uM after 24 hrs relative to control; assay type: functional
SH-SY5Y [2] = experiment: Antioxidant activity in human SHSY5Y cells overexpressing NQO1 assessed as increase in tert-butyl hydroperoxide evoked-intracellular ROS formation at 1 uM after 24 hrs relative to control; assay type: functional
SH-SY5Y [3] = experiment: Antioxidant activity in human SHSY5Y cells overexpressing NQO1 assessed as increase in tert-butyl hydroperoxide evoked-intracellular ROS formation at 0.3 uM after 24 hrs relative to control; assay type: functional
SH-SY5Y [4] = experiment: Antioxidant activity in human SHSY5Y cells overexpressing NQO1 assessed as increase in tert-butyl hydroperoxide evoked-intracellular ROS formation at 0.1 uM after 24 hrs relative to control; assay type: functional
[5] = biological target: NAD(P)H dehydrogenase [quinone] 1 (Homo sapiens) (UniProt P15559); experiment: Activity of NQO1 enzyme
Chain of NAD(P)H dehydrogenase [quinone] 1 (Homo sapiens) (P15559 whole entry): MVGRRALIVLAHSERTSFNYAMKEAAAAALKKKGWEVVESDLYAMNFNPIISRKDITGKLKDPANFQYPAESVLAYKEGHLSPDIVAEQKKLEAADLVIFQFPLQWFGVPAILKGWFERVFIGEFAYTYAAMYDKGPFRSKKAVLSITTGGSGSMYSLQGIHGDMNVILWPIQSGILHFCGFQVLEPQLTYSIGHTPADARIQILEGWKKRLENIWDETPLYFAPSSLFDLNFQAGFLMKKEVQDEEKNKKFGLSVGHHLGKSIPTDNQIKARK

Chain of Cholinesterase (P06276 whole entry): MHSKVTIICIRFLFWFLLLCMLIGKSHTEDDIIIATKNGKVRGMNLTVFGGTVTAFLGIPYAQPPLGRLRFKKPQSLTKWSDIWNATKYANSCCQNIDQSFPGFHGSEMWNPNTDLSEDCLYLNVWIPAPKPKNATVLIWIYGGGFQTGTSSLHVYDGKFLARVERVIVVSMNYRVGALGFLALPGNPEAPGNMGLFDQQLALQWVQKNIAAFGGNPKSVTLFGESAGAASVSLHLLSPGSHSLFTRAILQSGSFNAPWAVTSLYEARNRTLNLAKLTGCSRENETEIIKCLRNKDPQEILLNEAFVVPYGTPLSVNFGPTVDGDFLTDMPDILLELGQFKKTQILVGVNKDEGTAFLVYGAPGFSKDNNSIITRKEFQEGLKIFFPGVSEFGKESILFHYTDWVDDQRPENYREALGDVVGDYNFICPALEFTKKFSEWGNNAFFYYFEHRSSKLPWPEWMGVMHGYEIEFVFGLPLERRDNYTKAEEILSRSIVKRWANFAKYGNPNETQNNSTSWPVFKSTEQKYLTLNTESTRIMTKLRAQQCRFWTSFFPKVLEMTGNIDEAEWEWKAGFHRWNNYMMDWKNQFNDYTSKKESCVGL
Chain of Acetylcholinesterase (P22303 whole entry): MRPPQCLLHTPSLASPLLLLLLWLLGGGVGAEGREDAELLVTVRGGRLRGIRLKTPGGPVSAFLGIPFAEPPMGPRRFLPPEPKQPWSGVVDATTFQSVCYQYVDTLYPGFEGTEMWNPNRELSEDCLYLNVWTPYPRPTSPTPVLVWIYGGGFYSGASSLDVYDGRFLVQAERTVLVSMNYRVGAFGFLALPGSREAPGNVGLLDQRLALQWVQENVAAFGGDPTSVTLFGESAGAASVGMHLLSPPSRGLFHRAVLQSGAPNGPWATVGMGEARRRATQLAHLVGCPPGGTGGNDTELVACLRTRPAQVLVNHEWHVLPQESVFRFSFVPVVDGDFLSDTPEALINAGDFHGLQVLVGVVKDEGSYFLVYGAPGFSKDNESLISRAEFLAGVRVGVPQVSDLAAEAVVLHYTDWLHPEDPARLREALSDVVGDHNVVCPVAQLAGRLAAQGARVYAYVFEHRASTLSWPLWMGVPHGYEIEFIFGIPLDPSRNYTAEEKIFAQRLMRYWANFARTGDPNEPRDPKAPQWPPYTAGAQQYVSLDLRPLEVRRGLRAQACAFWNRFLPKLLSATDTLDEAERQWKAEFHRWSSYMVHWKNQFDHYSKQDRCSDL

Work on `CCN(CCCCNC1=CC(=O)C(NCCCCN(CC)Cc2ccccc2OC)=CC1=O)Cc1ccccc1OC` yielded a pIC50 (Acetylcholinesterase) of 7.87 and a pIC50 (Cholinesterase) of 4.89.

In the case of `CCN(CCCCCNC1=CC(=O)C(NCCCCCN(CC)Cc2ccccc2OC)=CC1=O)Cc1ccccc1OC`, the pIC50 (Acetylcholinesterase) was 8.63 and the pIC50 (Cholinesterase) was 5.46.

`COc1ccccc1CN(CCCCCCNC1=CC(=O)C(NCCCCCCN(Cc2ccccc2OC)C(C)C)=CC1=O)C(C)C` showed a pIC50 (Acetylcholinesterase) of 7.89 and a pIC50 (Cholinesterase) of 6.18.

In the case of `CCN(CCCCCCNC1=C(Br)C(=O)C(NCCCCCCN(CC)Cc2ccccc2OC)=C(Br)C1=O)Cc1ccccc1OC`, the Activity (SH-SY5Y [1]) was 42.12%, the Activity (SH-SY5Y [2]) was 50.43% and the Activity (SH-SY5Y [3]) was 52.35%. For the same compound, the Activity (SH-SY5Y [4]) was 50.51% and the pIC50 (Cholinesterase) was 6.16.

With `CCN(CCCCCCNC1=CC(=O)C(NCCCCCCN(CC)Cc2cccnc2)=CC1=O)Cc1cccnc1` the pIC50 (Acetylcholinesterase) was 6.88 and the pIC50 (Cholinesterase) was 4.92.

With `CCN(CCCCCCNc1ccc(NCCCCCCN(CC)Cc2ccccc2OC)cc1)Cc1ccccc1OC` the Activity [5] was “inactive”, the Activity (SH-SY5Y [1]) was 49.54% and the Activity (SH-SY5Y [2]) was 51.35%. The pIC50 (Acetylcholinesterase) was 7.37, the Activity (SH-SY5Y [3]) was 50.45% and the Activity (SH-SY5Y [4]) was 54.2%. The pIC50 (Cholinesterase) was 6.30.

Compound `CCN(CCCCCCNC1=CC(=O)C(NCCCCCCN(CC)Cc2ccccn2)=CC1=O)Cc1ccccn1` has a pIC50 (Acetylcholinesterase) of 6.90 and a pIC50 (Cholinesterase) of 5.61.

For `CCN(CCCCCCNC1=C(c2ccccc2)C(=O)C(NCCCCCCN(CC)Cc2ccccc2OC)=C(c2ccccc2)C1=O)Cc1ccccc1OC`, the pIC50 (Acetylcholinesterase) was 6.91 and the pIC50 (Cholinesterase) was 5.65.

`CCN(CCCCCCNC1=CC(=O)C(NCCCCCCN(CC)Cc2ccc(OC)cc2)=CC1=O)Cc1ccc(OC)cc1` showed a pIC50 (Cholinesterase) of 5.62.

`CCN(CCCCCCNC1=CC(=O)C(NCCCCCCN(CC)Cc2cccs2)=CC1=O)Cc1cccs1` gave a pIC50 (Acetylcholinesterase) of 7.22 and a pIC50 (Cholinesterase) of 5.55.

For `CCN(CCCCCCNC1=CC(=O)C(NCCCCCCN(CC)CCc2ccccc2OC)=CC1=O)CCc1ccccc1OC`, the pIC50 (Acetylcholinesterase) was 7.76 and the pIC50 (Cholinesterase) was 6.29.

With `CCN(CCCCCCNC1=C(Cl)C(=O)C(NCCCCCCN(CC)Cc2ccccc2OC)=C(Cl)C1=O)Cc1ccccc1OC` the pIC50 (Acetylcholinesterase) was 8.52 and the pIC50 (Cholinesterase) was 6.10.

Work on `CCN(CCCCCCNC1=CC(=O)C(NCCCCCCN(CC)Cc2ccccc2C)=CC1=O)Cc1ccccc1C` yielded a pIC50 (Acetylcholinesterase) of 7.14 and a pIC50 (Cholinesterase) of 5.68.

`CCN(CCCCCCNC1=CC(=O)C(NCCCCCCN(CC)Cc2ccncc2)=CC1=O)Cc1ccncc1` was tested, and the pIC50 (Acetylcholinesterase) was 6.72 and the pIC50 (Cholinesterase) was 4.15.

`CCN(CCCNC1=CC(=O)C(NCCCN(CC)Cc2ccccc2OC)=CC1=O)Cc1ccccc1OC` gave a pIC50 (Cholinesterase) of 5.01.

`CCN(CCCCCCNC1=CC(=O)C(NCCCCCCN(CC)Cc2ccco2)=CC1=O)Cc1ccco1` gave a pIC50 (Cholinesterase) of 5.47.

Work on `CCN(CCCCCCNC1=CC(=O)C(NCCCCCCN(CC)Cc2ccccc2OC)=CC1=O)Cc1ccccc1OC` [MEMOQUIN] yielded an Activity (SH-SY5Y [1]) of 30.5%, an Activity (SH-SY5Y [2]) of 40.25% and an Activity (SH-SY5Y [3]) of 49.94%. For the same compound, the Activity (SH-SY5Y [4]) was 53%.

Compound `CCN(CCCCCCNC1=CC(=O)C(NCCCCCCN(CC)Cc2cccc(OC)c2)=CC1=O)Cc1cccc(OC)c1` has a pIC50 (Cholinesterase) of 5.77.

With `CCN(Cc1ccccc1OC)C(=O)CCCCCNC1=CC(=O)C(NCCCCCC(=O)N(CC)Cc2ccccc2OC)=CC1=O` the pIC50 (Acetylcholinesterase) was 4.94 and the pIC50 (Cholinesterase) was 4.73.

For `CCN(CCCCCCNC1=CC(=O)C(NCCCCCCN(CC)Cc2ccccc2[N+](=O)[O-])=CC1=O)Cc1ccccc1[N+](=O)[O-]`, the pIC50 (Cholinesterase) was 4.17.
